Series [1] deals with U343 cells. The series can be described thus: Cellular internalization by acid wash, U343 cells. Format: cell-based, human. From the text:
(§1) The human squamous carcinoma cell line A431 (ATCC, CLR 1555, Rocksville, Md., USA) and the malignant glioma cell line U343MGaC12:6 (Westermark B, Magnusson A, Heldin C H. Effect of epidermal growth factor on membrane motility and cell locomotion in cultures of human clonal glioma cells. J Neurosci Res. 1982; 8(2-3): 491-507) (from now on denoted U343) were used in all cell experiments. This A431 cell line is reported to express approximately 2×10^6 EGFR per cell, and the U343 cell line express approximately 5.5×10^5 EGFR per cell. […]
(§2) Instead of trypsinising the cells, treatment with 0.5 ml ice-cold 0.1 M glycin-HCl buffer, pH 2.5 for 6 min at 0° C. was used to extract the membrane bound fraction of the conjugate. […] The remaining radioactivity, considered to be internalized radioactivity, was collected by treatment with 0.5 ml 1 M NaOH solution at 37° C. for about 60 min. […] The collected fractions were measured in an automated gamma counter.
(§3) In this study, the degree of internalization was estimated by acid wash. Radioactivity, which was removed from cells by an acidic buffer was considered as membrane-bound, and the rest as internalized. […] More than 50% of the radioactivity was internalized at 30 min after the start of incubation in the case of glioma U343 cells.

Series [2] concerns A431 tumor xenografts. The series can be described thus: MicroPET imaging of tumor-bearing mice. The class given is in vivo. On the procedure:
(§4) The in vivo studies were carried out in adult female Balb/c nu/nu mice (21-25 g) (Möllegård, Denmark) with tumor xenografts. All animals were handled according to the guidelines by the Swedish Animal Welfare Agency, and the experiments were approved by the local Ethics Committee for Animal Research. The mice were injected subcutaneously with A431 tumor cells (approximately 7 million cells per tumor in 100 μl cell culture medium) in both front legs. The tumors were allowed to grow for 12-13 days before the experiments were performed, and had then reached a weight of 0.1-0.8 g.
Imaging was performed on a microPET R4 scanner (Concorde Microsystems, Inc.), with a computer-controlled bed and 10 cm transaxial and 8 cm axial field of view (FOV). […] After completion of the study the animals were decapitated under anesthesia and blood, liver, and kidney samples were collected for radioactivity measurements.
Scatter correction, random counts and dead time correction were all incorporated into the reconstruction algorithm. Radiation attenuation in each animal was measured with two rotating rod sources containing ^68 Ge/^68Ga before tracer injection and the images were corrected for radiation attenuation. […] Pharmacokinetic curves, representing the radioactivity concentrations (percentage of injected dose per gram of tissue), versus time after injection were determined accordingly. […]

The format of series [3] is physicochemical. The protocol: Analytical liquid chromatography (LC) was performed using a HPLC system from Beckman (Fullerton, Calif., USA) consisting of a 126 pump, a 166 UV detector and a radiation detector coupled in series. Data acquisition and handling was performed using the Beckman System Gold Nouveau Chromatography Software Package. The column used was a Vydac RP 300 Å HPLC column (Vydac, USA) with the dimensions 150 mm×4.6 mm, 5 μm particle size. The applied gradient elution had the following parameters: A=10 mM TFA; B=70% acetonitrile (MeCN), 30% H2O, 10 mM TFA with UV-detection at 220 nm; flow was 1.2 mL/min; 0-2 min isocratic 20% B, 20-90% B linear gradient 8 min, 90-20% B linear gradient 2 min The quantity of ^68Ga-DOTA-hEGF and radio-impurities retained on the column could be obtained by measuring the activity of the sample injected on the column and the fractions collected from the outlet with a crystal scintillation counter. The overall loss on the system was 10%. The measured activity of the fractions of ^68Ga-DOTA-hEGF and hydrophilic radio-impurities were in agreement with the respective values obtained from the HPLC chromatograms. […]
The microwave-accelerated labeling of the conjugates (Scheme 1) was performed using a non-concentrated or a pre-concentrated generator ^68Ga-eluate. […] Pre-concentration of eluate allowed to obtain specific radioactivity of 28 MBq/nmol. […]

The test system of series [4] is U343 cells. The series can be described thus: Cellular retention of radioactivity after interrupted incubation, U343 cells. Format: cell-based, human. The note with it: 4 hours after interrupted incubation.
Source text: as §1, with “cell. The cells were cultured in Ham's F10 medium (Biochrom Kg), supplemented with 10% fetal calf serum (Sigma), L-glutamine (2 mM) and PEST (penicillin 100 IU/ml and streptomycin 100 μg/ml) both from Biochrom Kg. During cell culture and cell experiments (unless otherwise stated) cells were grown at 37° C. in incubators with humidified air, equilibrated with 5% CO2.” for “cell.”
(§5) After the incubation, the cells were washed thoroughly to eliminate unbound conjugate, and the incubation was then continued in fresh cell culture medium. After 0.5-4 h, the cells were trypsinized, counted and measured for radioactivity, as described above.
(§6) An initial drop of radioactivity, which was most likely due to dissociation of membrane-bound conjugates, was followed by a relatively constant amount of cell-bound ^68Ga.

The test system of series [5] is A431 cells. The series can be described thus: Cellular retention of radioactivity after interrupted incubation, A431 cells. The note with it: 4 hours after interrupted incubation. Format: cell-based, human.
Source text: as §1, with “cell. The cells were cultured in Ham's F10 medium (Biochrom Kg), supplemented with 10% fetal calf serum (Sigma), L-glutamine (2 mM) and PEST (penicillin 100 IU/ml and streptomycin 100 μg/ml) both from Biochrom Kg. During cell culture and cell experiments (unless otherwise stated) cells were grown at 37° C. in incubators with humidified air, equilibrated with 5% CO2.” for “cell.”
as §5, §6

The subject of series [6] is A431 cells. The series can be described thus: Cellular internalization by acid wash, A431 cells. The class given is cell-based, human.
Source text: as §1, §2, §3

Series [7] deals with A431 tumor xenografts. Details: species or system Balb/c nu/nu mice. The note with it: mouse, in vivo, iv, 0.5 h. The protocol: as §4
In order to estimate an influence of amount injected conjugate on uptake in tumors and normal tissues, a biodistribution study was performed. […] The mice were anesthetised by an intraperitoneal injection of a mixture of Rompun (1 mg/ml) and Ketalar (10 mg/ml), 0.2 ml per 10 g of animal weight, and killed by heart puncture. In addition to the tumors, blood, heart, pancreas, spleen, stomach, liver, kidneys, lungs, small and large intestine, muscle, bone and salivary gland were collected, weighed and measured in an automated gamma counter. The tails were also measured for radioactive content, in order to determine the accuracy of the injections. Organ values were calculated as percent of injected activity per g of organ (% IA/g).

“Also recorded” adds a separate entry of the source. Read-outs that look alike come from different tables or passages of the source.

On to “^68Ga-DOTA-EGF: recombinant human epidermal growth factor conjugated to the chelator DOTA (one to three DOTA) and labeled with 68Ga; PET tracer”, for which the radioactivity internalized entry in the series with U343 cells [1] (30 min after the start of incubation) is reported as “More than 50%”. Also, the internalization rate entry is reported as “faster” in the series with U343 cells [1] (acid wash, compared to A431) and “rapid process” with A431 cells [6]. In the series on A431 tumor xenografts [2] (0.16 nmol injected, liver, kidneys, tumours, pharmacokinetic curves), the “organ distribution by microPET” value is “Prominent uptake was observed in the liver and kidneys; also recorded: rapid distribution”. Moreover, the “tumor visualization by microPET” value in the series on A431 tumor xenografts [2] (30 min after administration of 2.0 MBq, right and left leg tumors) is reported as “visible with clear contrast”. The “stability in PBS” value in series [3] was “stable”. Further, the “cell-associated radioactivity (retention)” value with U343 cells [4] and in the series on A431 cells [5] was “more than 70%” in each case. The “radioactivity remaining in the circulation (blood)” value with A431 tumor xenografts [7] (0.016 nmol per animal) and with A431 tumor xenografts [7] (0.16 nmol per animal) was “less than 1 % IA/g” throughout. Besides, the figures for the “uptake in the A431 tumour xenograft” value with A431 tumor xenografts [7] (0.016 nmol per animal) and with A431 tumor xenografts [7] (0.16 nmol per animal) were 1.51±0.16 % IA/g and 2.69±0.29 % IA/g, respectively.

The record behind these values is patent publication US20110117012A1, “RADIOLABELED GALLIUM COMPLEXES, METHODS FOR SYNTHESIS AND USE FOR PET IMAGING OF EGFR EXPRESSION IN MALIGNANT TUMORS” (priority 2003, published 2011).
